The values that follow come from BindingDB's records for patent US20250313563 (The Broad Institute, 2025).

Structures are written as SMILES. “And” between values parts separate entries of the source, which are not always exact repeats. Identical values can stand only once.

The target of experiment [1] is Glycogen synthase kinase-3 alpha (Homo sapiens, UniProt P49840). Put plainly: TR-FRET Assay. The essentials: (§1)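 TR-FRET readout: streptavidin-d2 (40 nM in added detection mix) plus Tb-anti-pSer641 Ab (2 nM in mix). Steps were 30 min compound preincubation, kinase reaction, then EDTA stop.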
Experiment [2] deals with Glycogen synthase kinase-3 beta (Homo sapiens, UniProt P49841). Description: TR-FRET Assay. The essentials: as §1
On the technique in general: In TR-FRET formats the signal depends on donor and acceptor labels being close together.

Sequence of Glycogen synthase kinase-3 alpha (P49840 whole entry): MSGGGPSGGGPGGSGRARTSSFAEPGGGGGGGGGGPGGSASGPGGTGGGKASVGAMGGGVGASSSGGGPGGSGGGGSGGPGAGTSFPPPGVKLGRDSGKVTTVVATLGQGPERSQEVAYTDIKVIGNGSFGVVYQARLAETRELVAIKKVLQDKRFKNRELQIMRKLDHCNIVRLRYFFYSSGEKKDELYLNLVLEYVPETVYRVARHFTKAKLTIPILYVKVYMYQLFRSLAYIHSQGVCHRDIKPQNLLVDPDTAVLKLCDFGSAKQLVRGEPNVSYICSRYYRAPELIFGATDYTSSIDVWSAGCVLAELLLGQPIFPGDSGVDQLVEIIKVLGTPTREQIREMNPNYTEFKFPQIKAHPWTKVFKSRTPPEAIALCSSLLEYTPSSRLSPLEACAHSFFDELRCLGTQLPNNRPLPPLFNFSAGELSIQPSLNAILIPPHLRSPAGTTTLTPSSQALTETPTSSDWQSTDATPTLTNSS
Sequence of Glycogen synthase kinase-3 beta (P49841 whole entry): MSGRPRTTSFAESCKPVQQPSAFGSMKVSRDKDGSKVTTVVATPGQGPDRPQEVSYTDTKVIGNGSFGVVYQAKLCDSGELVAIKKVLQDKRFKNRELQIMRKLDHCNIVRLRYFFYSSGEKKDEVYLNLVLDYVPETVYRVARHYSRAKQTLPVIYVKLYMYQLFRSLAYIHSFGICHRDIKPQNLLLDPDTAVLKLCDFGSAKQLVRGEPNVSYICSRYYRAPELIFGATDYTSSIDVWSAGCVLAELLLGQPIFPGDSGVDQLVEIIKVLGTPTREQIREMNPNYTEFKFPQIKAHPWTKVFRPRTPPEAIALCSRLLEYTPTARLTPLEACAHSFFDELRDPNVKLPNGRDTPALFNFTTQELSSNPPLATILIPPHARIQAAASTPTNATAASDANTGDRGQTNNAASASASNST

Consider `CC1(C)CC(=O)C2=C(C1)NC1=C(CN=N1)C21CCC(C(=O)N2CCCC2)CC1` (stereo not given) [US20250313563, Compound 945396], for which the IC50 in experiment [1] and in experiment [2] was 0.1 to 1 µM throughout.

Consider `CC[C@@]1(c2cccc(-c3ccncc3C)c2)C2=CN=NC2NC2=C1C(=O)NC1(CCC1)C2` (stereo not given in full) [US20250313563, Compound 948512], for which the IC50 in experiment [1] is < 0.1 µM and 0.1 to 1 µM; in experiment [2] it was < 0.1 µM and 1 to 5 µM.

`CC1(C(F)(F)F)CC(=O)C2=C(C1)NC1=C(CN=N1)C21CCOCC1` (stereo not given) [US20250313563, Compound 901458]: the half-maximal inhibitory concentration (IC50) in experiment [1] and in experiment [2] was 0.1 to 1 µM throughout.

Turning to `CCC1(c2ccccc2)C2=C(N=NC2)NC2=C1C(=O)CC1(CCCC1)C2` (stereo not given) [US20250313563, Compound 785737], the IC50 in experiment [1] is under 0.1 µM; in experiment [2], 0.1 to 1 µM.

For the compound `CC(=O)N1C[C@]2(C[C@@]3(CO2)C2=C(N=NC2)NC2=C3C(=O)CC(C)(C)C2)[C@H]1C` [US20250313563, Compound 948437], the IC50 in experiment [1] and in experiment [2] was under 0.1 µM throughout.

Regarding `CCC1(c2cccc(Cc3ncccc3C(F)(F)F)c2)C2=CN=NC2NC2=C1C(=O)CC(C)(C)C2` (stereo not given) [US20250313563, Compound 947548], the IC50 in experiment [1] and in experiment [2] was 0.1 to 1 µM in each case.

As for `CC1(C)CC(=O)C2=C(C1)NC1=C(CN=N1)C21CCN(S(=O)(=O)c2ccc(Cl)cc2)CC1` [US20250313563, Compound 945661], the IC50 in experiment [1] and in experiment [2] was under 0.1 µM throughout.

Take `CC[C@@]1(c2cccc(-c3ccnc(C)c3F)c2)C2=CN=NC2NC2=C1C(=O)NC(C)(C)C2` (stereo not given in full) [US20250313563, Compound 948306]: the IC50 in experiment [1] was under 0.1 µM; in experiment [2], 0.1 to 1 µM.

Take `CC[C@]1(c2cccc(-c3ccnc(C)c3)c2)C2=CN=NC2NC2=C1C(=O)N[C@H](C)C2` (stereo not given in full) [US20250313563, Compound 926212]: the IC50 was under 0.1 µM in experiment [1] and 1 to 5 µM in experiment [2].

In the case of `CCC1(c2cccc(S(C)(=O)=O)c2)C2=CN=NC2NC2=C1C(=O)NC(C)(C)C2` (stereo not given) [US20250313563, Compound 944020], the IC50 in experiment [1] and in experiment [2] was under 0.1 µM each time.

Consider `CC[C@]1(c2ccccc2)C2=CN=NC2NC2=C1C(=O)C(O)C(C)(C)C2` (stereo not given in full) [US20250313563, Compound 946056], for which the IC50 in experiment [1] is 0.1 to 1 µM; in experiment [2] it was over 5 µM.

Consider `CN1CCC2(CC1)C1=C(N=NC1)NC1=C2C(=O)CC(C)(C)C1` [US20250313563, Compound 826714], for which the IC50 in experiment [1] and in experiment [2] was over 5 µM each time.

For the compound `CC[C@@]1(c2ccccc2)C2=CN=NC2NC2=C1C(=O)C[C@H](C(F)(F)F)C2` (stereo not given in full) [US20250313563, Compound 806608], the IC50 in experiment [1] was 0.1 to 1 µM; in experiment [2] it was over 1.67 µM.

On to `CC[C@@]1(c2cccc([C@@H]3CCOC3)c2)C2=CN=NC2NC2=C1C(=O)CC(C)(C)C2` (stereo not given in full) [US20250313563, Compound 889565], for which the IC50 was 0.1 to 1 µM in experiment [1] and 1 to 5 µM in experiment [2].

`CC1(C)CC(=O)C2=C(C1)NC1N=NC(Br)=C1[C@@]21CCc2c(F)cccc21` (stereo not given in full) [US20250313563, Compound 806938]: the IC50 fell in the range of 0.1 to 1 µM in experiment [1] and 1 to 5 µM in experiment [2].

As to `CC1(C)CC(=O)C2=C(C1)NC1=C(CN=N1)C21COC2(CN(C(=O)C3CCC(F)(F)C3)C2)C1` (stereo not given) [US20250313563, Compound 947265], the IC50 was under 0.1 µM in experiment [1] and 0.1 to 1 µM in experiment [2].

Consider `CC[C@@]1(c2ccccc2)C2=CN=NC2NC2=C1C(=O)C[C@]1(CCOC1)C2` (stereo not given in full) [US20250313563, Compound 816881], for which the IC50 in experiment [1] was in the range of 0.1 to 1 µM; in experiment [2] it was 1 to 5 µM.

Regarding `CC[C@@]1(c2cccc(-c3c(C)nn(C)c3C)c2)C2=C(CC(C)(C)CC2=O)NC2N=NC(C)=C21` (stereo not given in full) [US20250313563, Compound 913026], the IC50 in experiment [1] and in experiment [2] was 0.1 to 1 µM throughout.

Regarding `CCC1(c2cccc(-c3ccnc(OC(C)C)c3)c2)C2=CN=NC2NC2=C1C(=O)CC(C)(C)C2` (stereo not given) [US20250313563, Compound 932626], the 50% inhibitory concentration (IC50) in experiment [1] and in experiment [2] was 0.1 to 1 µM in each case.

For `CC1(C)CC(=O)C2=C(C1)NC1=C(CN=N1)[C@]21CCC[C@H](C#N)C1` [US20250313563, Compound 946078], the IC50 in experiment [1] was 1 to 5 µM; in experiment [2], over 5 µM.

Turning to `CC1(C)CC(=O)C2=C(C1)NC1N=NC(C(F)(F)F)=C1C21CCCc2ccccc21` (stereo not given) [US20250313563, Compound 790745], the IC50 in experiment [1] and in experiment [2] was under 0.1 µM in each case.

Consider `CC1=C2C(N=N1)NC1=C(C(=O)CC(C)(C)C1)C21CCCCC1` (stereo not given) [US20250313563, Compound 883865], for which the figures for the IC50 in experiment [1] and in experiment [2] were under 0.1 µM and 0.1 to 1 µM, respectively.

Take `CC[C@]1(c2cccc(-c3c4c(cn3C)CCCC4)c2)C2=CN=NC2NC2=C1C(=O)NC(C)(C)C2` (stereo not given in full) [US20250313563, Compound 948655]: the values for the IC50 in experiment [1] and in experiment [2] were under 0.1 µM and 0.1 to 1 µM, respectively.

For the compound `CC[C@@]1(c2cccc(C(F)(F)F)c2)C2=C(N=NC2)NC2=C1C(=O)NC2` [US20250313563, Compound 917158], the values for the IC50 in experiment [1] and in experiment [2] were 0.1 to 1 µM and 1 to 5 µM, respectively.

`CC[C@]1(c2cccc(-c3cnn(C)c3)c2)C2=CN=NC2NC2=C1C(=O)CC(C)(C)C2` (stereo not given in full) [US20250313563, Compound 819577]: the IC50 in experiment [1] and in experiment [2] was 0.1 to 1 µM in each case.

On to `COc1ncccc1S(=O)(=O)N1CCC2(CC1)C1=C(N=NC1)NC1=C2C(=O)CC(C)(C)C1` [US20250313563, Compound 947260], for which the IC50 was under 0.1 µM in experiment [1]; < 0.1 µM and 0.1 to 1 µM in experiment [2].

Take `CC[C@@]1(c2cccc(-c3c(C)ccc4c(C)cccc34)c2)C2=C(CC(C)(C)NC2=O)NC2N=NC(F)=C21` (stereo not given in full) [US20250313563, Compound 949392]: the IC50 in experiment [1] was 1 to 5 µM; in experiment [2] it was over 5 µM.

For the compound `CCC1(c2cccc(C(F)(F)F)c2)C2=CN=NC2NC2=C1C(=O)N(c1ccccc1)C2` (stereo not given) [US20250313563, Compound 918313], the IC50 in experiment [1] lay within 0.1 to 1 µM; in experiment [2], 1 to 5 µM.

For `CC[C@]1(c2ccccc2)C2=CN=NC2NC2=C1C(=O)C[C@]1(CCOC1)C2` (stereo not given in full) [US20250313563, Compound 816884], the IC50 in experiment [1] lay within 0.1 to 1 µM; in experiment [2], 1 to 5 µM.

`CCC1(c2cccc(-c3ccncc3F)c2)C2=C(CC(C)(C)NC2=O)NC2N=NC(Cl)=C21` (stereo not given) [US20250313563, Compound 949324]: the IC50 in experiment [1] was < 0.1 µM and 0.1 to 1 µM; in experiment [2], < 0.1 µM and 1 to 5 µM.

`CC1(C)CC(=O)C2=C(C1)NC1=C(CN=N1)[C@]21C[C@@H](c2ccncc2)C1` [US20250313563, Compound 889665]: the IC50 in experiment [1] is under 0.1 µM; in experiment [2], < 0.1 µM and 0.1 to 1 µM.

With `CCC1(c2ccc(F)cc2)C2=C(N=NC2)NC2=C1C(=O)CC(C)(C)C2` (stereo not given) [US20250313563, Compound 772965], the IC50 in experiment [1] is 1 to 5 µM; in experiment [2] it was over 5 µM.

With `CCC1(c2cccc(-c3ccnc4c3CCC4)c2)C2=C(CC(C)(C)NC2=O)NC2N=NC(C)=C21` (stereo not given) [US20250313563, Compound 947675], the figures for the IC50 in experiment [1] and in experiment [2] were under 0.1 µM and 0.1 to 1 µM, respectively.

Take `CC1(C)CC(=O)C2=C(C1)NC1=C(CN=N1)C21CCC(C(=O)N2CCCC2)CC1` (stereo not given) [US20250313563, Compound 945394]: the IC50 lay within 0.1 to 1 µM in experiment [1] and 1 to 5 µM in experiment [2].

For the compound `CC1(C)CC(=O)C2=C(C1)NC1=C(CN=N1)C2(C)c1cc(Cl)cc(Cl)c1` (stereo not given) [US20250313563, Compound 789337], the IC50 in experiment [1] is 0.1 to 1 µM; in experiment [2], 1 to 5 µM.

Broadly, the IC50 is the concentration at which inhibition is half-maximal.
